Reference: patent US20240391965A1, “STAPLED ANTIMICROBIAL PEPTIDES (STAMPS) AND USES THEREOF” (Lytica Therapeutics, Inc., priority 2021, published 2024)
In brackets after ≈: the same amount, converted by molar mass. Starred links: 1 amine or outer side, 2 acyl side, 3 side chain; linkers in the order of their positions; H or OH if unused. Positions of bridges follow the written chain, without caps; N, C: chain ends. Residues, ends and D or L forms follow the SMILES beside them. Biphenyl(4,4'-CH2)2 = c1cc(-c2ccc(C[*:2])cc2)ccc1C[*:1]; mXylylene = c1cc(C[*:1])cc(C[*:2])c1; pXylylene = c1cc(C[*:2])ccc1C[*:1]; X1 = C(=CC[*:2])C[*:1]

Legend:
[1] = 90 minute cytotoxicity assay (LDH release), renal toxicity; format: cell-based
Text: In some embodiments, a peptide provided herein has renal toxicity that is at least 10% (e.g., at least 15%, at least 20%, at least 25%, at least 30%, at least 35%, at least 40%, at least 45%, at least 50%, at least 55%, at least 60%, at least 65%, at least 65%, at least 70%, at least 75%, at least 80%, at least 85%, at least 90%, at least 95%, at least 99%) lower than the renal toxicity of the reference. The renal toxicity of a peptide can be measured in vitro using a renal proximal tubule epithelial cell (RPTEC) renal toxicity assay.
Cell culture: RPTEC were maintained in MEM media supplemented with growth factors. HEPG2 cell line was maintained in Eagle's Minimum Essential Medium (EMEM) supplemented with fetal bovine serum to a final concentration of 10%.
90 minute cytotoxicity assay: Cells were plated in a 96-well format, and after overnight incubation, media was replaced with fresh media. Serial dilutions of StAMPs from a 5 mg/mL water stock, or vehicle, were added to the cells in a final volume of 100 μl. After incubating at 37° C. for 90 min, 50 μl of cell culture media was transferred to a clear 96-well plate, incubated with 50 μl of lactate dehydrogenase (LDH) assay reagent for 10 min, and absorbance measured at 490 nm on a microplate reader.
Renal toxicity was measured after 90 minutes of incubation, while liver toxicity was measured after 48 hours of incubation with StAMPs. N/A=not tested.

[2] = 48 hours cytotoxicity assay (CellTiter-Glo), liver toxicity; format: cell-based, human
In short: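 HepG2 cells in EMEM with 10% FBS, allowed to attach 4 h, then exposed to serially diluted StAMPs or vehicle for 48 h at 37 °C. Viability read by CellTiter-Glo luminescence.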

Structure (SMILES) | IC50 [1] | IC50 [2]
CC[C@H](C)[C@H](NC(=O)CN)C(=O)N[C@@H](Cc1ccccc1)C(=O)N[C@@H](CO)C(=O)N[C@@H](CCCCN)C(=O)N[C@@H](CC(C)C)C(=O)N[C@H]1CSCc2ccc(cc2)-c2ccc(cc2)CSC[C@@H](C(=O)N[C@@H](CC(C)C)C(=O)N[C@H](C(=O)N[C@@H](CO)C(=O)NCC(=O)N[C@@H](CC(C)C)C(=O)N[C@@H](CCCCN)C(=O)NCC(N)=O)[C@@H](C)CC)NC(=O)[C@H](CC(N)=O)NC(=O)[C@H](CCCCN)NC(=O)[C@H]([C@@H](C)CC)NC(=O)[C@H](CCCCN)NC(=O)[C@H](CCCCN)NC(=O)CNC1=O [compound 88] (H-GIFSKLCGKKIKNCLISGLKG-NH2; linker 7-14 via Biphenyl(4,4'-CH2)2; N-terminus assumed) | 13 µg/mL (≈ 5.45 µM) | 15 µg/mL (≈ 6.29 µM)
CC[C@H](C)[C@H](NC(=O)CN)C(=O)N[C@@H](Cc1ccccc1)C(=O)N[C@@H](CO)C(=O)N[C@@H](CCCCN)C(=O)N[C@@H](CC(C)C)C(=O)N[C@@H](C)C(=O)NCC(=O)N[C@H]1CSCc2cccc(c2)CSC[C@@H](C(=O)N[C@@H](CC(C)C)C(=O)N[C@@H](CC(C)C)C(=O)N[C@H](C(=O)N[C@@H](CO)C(=O)NCC(=O)N[C@@H](CC(C)C)C(=O)N[C@@H](CCCCN)C(=O)NCC(N)=O)[C@@H](C)CC)NC(=O)[C@H](CCCCN)NC(=O)[C@H]([C@@H](C)CC)NC(=O)[C@H](CCCCN)NC1=O [compound 42] (H-GIFSKLAGCKIKCLLISGLKG-NH2; linker 9-13 via mXylylene; N-terminus assumed) | > 200 µg/mL | > 200 µg/mL
CC[C@H](C)[C@H](NC(=O)CN)C(=O)N[C@@H](Cc1ccccc1)C(=O)N[C@@H](CO)C(=O)N[C@@H](CCCCN)C(=O)N[C@@H](CC(C)C)C(=O)N[C@@H](C)C(=O)NCC(=O)N[C@@H](CCCCN)C(=O)N[C@@H](CCCCN)C(=O)N[C@H](C(=O)N[C@@H](CCCCN)C(=O)N[C@@H](CC(N)=O)C(=O)N[C@@H](CC(C)C)C(=O)N[C@@H](CC(C)C)C(=O)N[C@H](C(=O)N[C@H]1CSCc2cccc(c2)CSC[C@@H](C(N)=O)NC(=O)[C@H](CCCCN)NC(=O)[C@H](CC(C)C)NC(=O)CNC1=O)[C@@H](C)CC)[C@@H](C)CC [compound 44] (H-GIFSKLAGKKIKNLLICGLKC-NH2; linker 17-21 via mXylylene; N-terminus assumed) | 86 µg/mL (≈ 36.6 µM) | 48 µg/mL (≈ 20.4 µM)
CC[C@H](C)[C@H](NC(=O)[C@H](CC(C)C)NC(=O)[C@H](CC(C)C)NC(=O)[C@H](CC(N)=O)NC(=O)[C@H](CCCCN)NC(=O)[C@@H](NC(=O)[C@H](CCCCN)NC(=O)[C@H](CCCCN)NC(=O)CNC(=O)[C@H](C)NC(=O)[C@H](CC(C)C)NC(=O)[C@@H]1CSCC=CCSC[C@H](N)C(=O)N[C@@H]([C@@H](C)CC)C(=O)N[C@@H](Cc2ccccc2)C(=O)N[C@@H](CO)C(=O)N1)[C@@H](C)CC)C(=O)N[C@@H](CO)C(=O)NCC(=O)N[C@@H](CC(C)C)C(=O)N[C@@H](CCCCN)C(=O)NCC(N)=O [compound 38] (H-CIFSCLAGKKIKNLLISGLKG-NH2; linker 1-5 via X1; N-terminus assumed) | > 200 µg/mL | > 200 µg/mL
CC[C@H](C)[C@H](NC(=O)CN)C(=O)N[C@@H](Cc1ccccc1)C(=O)N[C@@H](CO)C(=O)N[C@@H](CCCCN)C(=O)N[C@@H](CC(C)C)C(=O)N[C@@H](C)C(=O)NCC(=O)N[C@@H](CCCCN)C(=O)N[C@@H](CCCCN)C(=O)N[C@H](C(=O)N[C@@H](CCCCN)C(=O)N[C@H]1CSCc2cccc(c2)CSC[C@@H](C(=O)NCC(=O)N[C@@H](CC(C)C)C(=O)N[C@@H](CCCCN)C(=O)NCC(N)=O)NC(=O)[C@H]([C@@H](C)CC)NC(=O)[C@H](CC(C)C)NC(=O)[C@H](CC(C)C)NC1=O)[C@@H](C)CC [compound 23] (H-GIFSKLAGKKIKCLLICGLKG-NH2; linker 13-17 via mXylylene; N-terminus assumed) | 52 µg/mL (≈ 22.7 µM) | 97 µg/mL (≈ 42.3 µM)
CC[C@H](C)[C@H](NC(=O)[C@H](CC(C)C)NC(=O)[C@H](CC(C)C)NC(=O)[C@H](CC(N)=O)NC(=O)[C@H](CCCCN)NC(=O)[C@@H](NC(=O)[C@H](CCCCN)NC(=O)[C@@H]1CSCc2ccc(cc2)-c2ccc(cc2)CSC[C@H](NC(=O)CN)C(=O)N[C@@H](Cc2ccccc2)C(=O)N[C@@H](CO)C(=O)N[C@@H](CCCCN)C(=O)N[C@@H](CC(C)C)C(=O)N[C@@H](C)C(=O)NCC(=O)N1)[C@@H](C)CC)C(=O)N[C@@H](CO)C(=O)NCC(=O)N[C@@H](CC(C)C)C(=O)N[C@@H](CCCCN)C(=O)NCC(N)=O [compound 53] (H-GCFSKLAGCKIKNLLISGLKG-NH2; linker 2-9 via Biphenyl(4,4'-CH2)2; N-terminus assumed) | 40 µg/mL (≈ 17.2 µM) | 78 µg/mL (≈ 33.5 µM)
CC[C@H](C)[C@H](NC(=O)CN)C(=O)N[C@@H](Cc1ccccc1)C(=O)N[C@@H](CO)C(=O)N[C@@H](CCCCN)C(=O)N[C@@H](CC(C)C)C(=O)N[C@H]1CSCc2cccc(c2)CSC[C@@H](C(=O)N[C@@H](CCCCN)C(=O)N[C@@H](CC(N)=O)C(=O)N[C@@H](CC(C)C)C(=O)N[C@@H](CC(C)C)C(=O)N[C@H](C(=O)N[C@@H](CO)C(=O)N[C@@H](C)C(=O)N[C@@H](CC(C)C)C(=O)N[C@@H](CCCCN)C(=O)NCC(=O)O)[C@@H](C)CC)NC(=O)[C@H](CCCCN)NC(=O)[C@H](CCCCN)NC(=O)CNC1=O [compound 98] (H-GIFSKLCGKKCKNLLISALKG-OH; linker 7-11 via mXylylene; N-terminus assumed) | 28 µg/mL (≈ 12 µM) | 50 µg/mL (≈ 21.5 µM)
CC[C@H](C)[C@H](NC(=O)CN)C(=O)N[C@@H](Cc1ccccc1)C(=O)N[C@@H](CO)C(=O)N[C@@H](CCCCN)C(=O)N[C@@H](CC(C)C)C(=O)N[C@@H](C)C(=O)NCC(=O)N[C@@H](CCCCN)C(=O)N[C@@H](CCCCN)C(=O)N[C@H](C(=O)N[C@@H](CCCCN)C(=O)N[C@@H](CC(N)=O)C(=O)N[C@H]1CSCC=CCSC[C@@H](C(=O)N[C@@H](CC(C)C)C(=O)N[C@@H](CCCCN)C(=O)NCC(N)=O)NC(=O)[C@H](CO)NC(=O)[C@H]([C@@H](C)CC)NC(=O)[C@H](CC(C)C)NC1=O)[C@@H](C)CC [compound 28] (H-GIFSKLAGKKIKNCLISCLKG-NH2; linker 14-18 via X1; N-terminus assumed) | > 200 µg/mL | > 200 µg/mL
CC[C@H](C)[C@H](NC(=O)CN)C(=O)N[C@@H](Cc1ccccc1)C(=O)N[C@@H](CO)C(=O)N[C@@H](CCCCN)C(=O)N[C@@H](CC(C)C)C(=O)N[C@@H](C)C(=O)NCC(=O)N[C@@H](CCCCN)C(=O)N[C@@H](CCCCN)C(=O)N[C@H](C(=O)N[C@@H](CCCCN)C(=O)N[C@@H](CC(N)=O)C(=O)N[C@@H](CC(C)C)C(=O)N[C@@H](CC(C)C)C(=O)N[C@H](C(=O)N[C@H]1CSCc2ccc(cc2)CSC[C@@H](C(N)=O)NC(=O)[C@H](CCCCN)NC(=O)[C@H](CC(C)C)NC(=O)CNC1=O)[C@@H](C)CC)[C@@H](C)CC [compound 45] (H-GIFSKLAGKKIKNLLICGLKC-NH2; linker 17-21 via pXylylene; N-terminus assumed) | 105 µg/mL (≈ 44.7 µM) | 83 µg/mL (≈ 35.3 µM)
